Test results: the NIST ThermoML archive (doi:10.1021/je700546r)
“And” between values parts separate entries of the source, which are not always exact repeats. Identical values can stand only once.

Assay: molar heat capacity at saturation pressure
Conditions: Small (less than 1 g) adiabatic calorimetry

ON=C1CCCCC1 [cyclohexanone oxime]
Conditions	molar heat capacity
224.01 K, Crystal 3	136.62 J/K/mol
224.62 K, Crystal 3	137.24 J/K/mol
224.76 K, Crystal 3	137.52 J/K/mol
225.92 K, Crystal 3	138.42 J/K/mol
226.48 K, Crystal 3	138.92 J/K/mol
226.5 K, Crystal 3	139.12 J/K/mol
227.85 K, Crystal 3	140.09 J/K/mol
228.24 K, Crystal 3	140.6 J/K/mol
228.33 K, Crystal 3	140.45 J/K/mol
229.78 K, Crystal 3	141.6 J/K/mol
229.98 K, Crystal 3	141.91 J/K/mol
230.18 K, Crystal 3	141.86 J/K/mol
231.71 K, Crystal 3	143.03 J/K/mol and 143.15 J/K/mol
232.03 K, Crystal 3	143.15 J/K/mol
233.43 K, Crystal 3	144.26 J/K/mol
233.64 K, Crystal 3	144.32 J/K/mol
233.87 K, Crystal 3	144.33 J/K/mol
235.14 K, Crystal 3	145.41 J/K/mol
235.57 K, Crystal 3	145.51 J/K/mol
235.71 K, Crystal 3	145.65 J/K/mol
236.85 K, Crystal 3	146.62 J/K/mol
237.5 K, Crystal 3	146.68 J/K/mol
237.54 K, Crystal 3	146.94 J/K/mol
238.56 K, Crystal 3	147.84 J/K/mol
239.36 K, Crystal 3	148.9 J/K/mol
239.43 K, Crystal 3	148.81 J/K/mol
239.79 K, Crystal 3	150.04 J/K/mol
241.18 K, Crystal 3	153.75 J/K/mol
241.36 K, Crystal 3	153.6 J/K/mol
241.48 K, Crystal 3	154.07 J/K/mol
242.99 K, Crystal 2	148.41 J/K/mol
243.3 K, Crystal 2	148.43 J/K/mol
243.42 K, Crystal 2	148.52 J/K/mol
244.82 K, Crystal 2	149.34 J/K/mol
245.25 K, Crystal 2	149.53 J/K/mol
245.37 K, Crystal 2	149.83 J/K/mol
246.66 K, Crystal 2	150.69 J/K/mol
247.07 K, Crystal 2	151.16 J/K/mol
247.18 K, Crystal 2	150.98 J/K/mol
248.48 K, Crystal 2	152.19 J/K/mol
248.78 K, Crystal 2	152.63 J/K/mol
250.29 K, Crystal 2	153.82 J/K/mol
250.48 K, Crystal 2	154.01 J/K/mol
252.11 K, Crystal 2	155.49 J/K/mol
252.36 K, Crystal 2	155.81 J/K/mol
253.91 K, Crystal 2	157.22 J/K/mol
254.12 K, Crystal 2	157.42 J/K/mol
255.71 K, Crystal 2	159 J/K/mol
255.8 K, Crystal 2	159.11 J/K/mol
257.47 K, Crystal 2	160.79 J/K/mol
257.5 K, Crystal 2	160.82 J/K/mol
259.14 K, Crystal 2	162.49 J/K/mol
259.28 K, Crystal 2	162.64 J/K/mol
260.8 K, Crystal 2	164.29 J/K/mol
261.05 K, Crystal 2	164.53 J/K/mol
262.46 K, Crystal 2	166.09 J/K/mol
262.82 K, Crystal 2	166.41 J/K/mol
264.11 K, Crystal 2	167.84 J/K/mol
264.58 K, Crystal 2	168.33 J/K/mol
265.75 K, Crystal 2	169.58 J/K/mol
266.34 K, Crystal 2	170.21 J/K/mol
267.39 K, Crystal 2	171.43 J/K/mol
268.08 K, Crystal 2	172.13 J/K/mol
269.02 K, Crystal 2	173.27 J/K/mol
269.82 K, Crystal 2	174.08 J/K/mol
270.64 K, Crystal 2	175.04 J/K/mol
271.56 K, Crystal 2	175.95 J/K/mol
272.26 K, Crystal 2	176.79 J/K/mol
273.28 K, Crystal 2	177.73 J/K/mol
273.87 K, Crystal 2	178.52 J/K/mol
275.02 K, Crystal 2	179.53 J/K/mol
275.47 K, Crystal 2	180.26 J/K/mol
276.74 K, Crystal 2	181.37 J/K/mol
277.08 K, Crystal 2	181.92 J/K/mol
278.45 K, Crystal 2	183.01 J/K/mol
278.67 K, Crystal 2	183.43 J/K/mol
280.15 K, Crystal 2	184.62 J/K/mol
280.26 K, Crystal 2	185.03 J/K/mol
281.85 K, Crystal 2	186.12 J/K/mol and 186.38 J/K/mol
283.43 K, Crystal 2	187.69 J/K/mol
283.54 K, Crystal 2	187.5 J/K/mol
285.01 K, Crystal 2	188.93 J/K/mol
285.24 K, Crystal 2	188.79 J/K/mol
286.58 K, Crystal 2	189.97 J/K/mol
286.93 K, Crystal 2	189.9 J/K/mol
288.15 K, Crystal 2	191 J/K/mol
288.61 K, Crystal 2	190.97 J/K/mol
289.72 K, Crystal 2	191.92 J/K/mol
290.29 K, Crystal 2	191.83 J/K/mol
291.28 K, Crystal 2	192.69 J/K/mol
291.97 K, Crystal 2	192.78 J/K/mol
292.14 K, Crystal 2	192.79 J/K/mol
292.85 K, Crystal 2	193.59 J/K/mol
293.65 K, Crystal 2	193.64 J/K/mol
293.7 K, Crystal 2	193.66 J/K/mol
294.41 K, Crystal 2	194.19 J/K/mol
295.26 K, Crystal 2	194.41 J/K/mol
295.32 K, Crystal 2	194.51 J/K/mol
295.97 K, Crystal 2	194.99 J/K/mol
296.81 K, Crystal 2	195.24 J/K/mol
297 K, Crystal 2	195.34 J/K/mol
297.53 K, Crystal 2	195.76 J/K/mol
298.36 K, Crystal 2	196.04 J/K/mol
298.66 K, Crystal 2	196.34 J/K/mol
299.09 K, Crystal 2	196.66 J/K/mol
299.91 K, Crystal 2	197.34 J/K/mol
300.33 K, Crystal 2	197.85 J/K/mol
300.64 K, Crystal 2	198.3 J/K/mol
301.45 K, Crystal 2	198.75 J/K/mol
301.99 K, Crystal 1	196.75 J/K/mol
302.19 K, Crystal 1	195.88 J/K/mol
303.01 K, Crystal 1	192.59 J/K/mol
303.67 K, Crystal 1	191.89 J/K/mol
303.76 K, Crystal 1	191.84 J/K/mol
304.57 K, Crystal 1	191.66 J/K/mol
305.34 K, Crystal 1	191.58 J/K/mol
305.36 K, Crystal 1	191.49 J/K/mol
305.83 K, Crystal 1	191.51 J/K/mol
306.14 K, Crystal 1	191.69 J/K/mol
306.91 K, Crystal 1	191.81 J/K/mol
307.05 K, Crystal 1	191.78 J/K/mol
307.6 K, Crystal 1	191.89 J/K/mol
307.71 K, Crystal 1	191.96 J/K/mol
308.49 K, Crystal 1	192.2 J/K/mol
308.74 K, Crystal 1	192.41 J/K/mol
309.27 K, Crystal 1	192.53 J/K/mol
309.38 K, Crystal 1	192.47 J/K/mol
310.07 K, Crystal 1	192.72 J/K/mol
310.43 K, Crystal 1	193 J/K/mol
310.95 K, Crystal 1	193.22 J/K/mol
311.16 K, Crystal 1	193.22 J/K/mol
311.68 K, Crystal 1	193.28 J/K/mol
312.22 K, Crystal 1	193.77 J/K/mol
312.72 K, Crystal 1	193.93 J/K/mol
312.94 K, Crystal 1	194.04 J/K/mol
313.36 K, Crystal 1	194.05 J/K/mol
314.11 K, Crystal 1	194.56 J/K/mol
314.48 K, Crystal 1	194.7 J/K/mol
314.72 K, Crystal 1	194.7 J/K/mol
315.03 K, Crystal 1	194.86 J/K/mol
316 K, Crystal 1	195.45 J/K/mol
316.25 K, Crystal 1	195.55 J/K/mol
316.49 K, Crystal 1	195.61 J/K/mol
316.71 K, Crystal 1	195.66 J/K/mol
317.89 K, Crystal 1	196.42 J/K/mol
318.01 K, Crystal 1	196.38 J/K/mol
318.27 K, Crystal 1	196.48 J/K/mol
318.38 K, Crystal 1	196.46 J/K/mol
319.77 K, Crystal 1	197.45 J/K/mol and 197.36 J/K/mol
320.04 K, Crystal 1	197.43 J/K/mol
320.11 K, Crystal 1	197.4 J/K/mol
321.54 K, Crystal 1	198.27 J/K/mol
321.81 K, Crystal 1	198.43 J/K/mol
321.98 K, Crystal 1	198.37 J/K/mol
323.3 K, Crystal 1	199.26 J/K/mol
323.58 K, Crystal 1	199.58 J/K/mol
323.8 K, Crystal 1	199.44 J/K/mol
325.05 K, Crystal 1	200.28 J/K/mol
325.35 K, Crystal 1	200.52 J/K/mol
325.62 K, Crystal 1	200.47 J/K/mol
326.81 K, Crystal 1	201.27 J/K/mol
327.11 K, Crystal 1	201.48 J/K/mol
327.43 K, Crystal 1	201.55 J/K/mol
328.56 K, Crystal 1	202.22 J/K/mol
328.87 K, Crystal 1	202.64 J/K/mol
329.24 K, Crystal 1	202.56 J/K/mol
330.32 K, Crystal 1	203.27 J/K/mol
330.63 K, Crystal 1	203.71 J/K/mol
331.06 K, Crystal 1	203.58 J/K/mol
331.23 K, Crystal 1	203.73 J/K/mol
332.4 K, Crystal 1	204.63 J/K/mol
332.88 K, Crystal 1	204.71 J/K/mol
332.98 K, Crystal 1	204.75 J/K/mol
334.15 K, Crystal 1	205.6 J/K/mol
334.7 K, Crystal 1	205.74 J/K/mol
334.74 K, Crystal 1	205.77 J/K/mol
335.91 K, Crystal 1	206.77 J/K/mol
336.49 K, Crystal 1	206.75 J/K/mol
336.52 K, Crystal 1	206.77 J/K/mol
337.67 K, Crystal 1	207.8 J/K/mol
338.25 K, Crystal 1	207.78 J/K/mol
338.35 K, Crystal 1	207.86 J/K/mol
339.42 K, Crystal 1	208.77 J/K/mol
339.99 K, Crystal 1	208.85 J/K/mol
340.17 K, Crystal 1	209 J/K/mol
341.17 K, Crystal 1	209.83 J/K/mol
341.74 K, Crystal 1	209.95 J/K/mol
341.99 K, Crystal 1	210.15 J/K/mol
342.93 K, Crystal 1	210.86 J/K/mol
343.49 K, Crystal 1	210.94 J/K/mol
343.81 K, Crystal 1	211.29 J/K/mol
344.68 K, Crystal 1	212.1 J/K/mol
345.25 K, Crystal 1	212.02 J/K/mol
345.63 K, Crystal 1	212.36 J/K/mol
346.43 K, Crystal 1	213.18 J/K/mol
346.99 K, Crystal 1	213.12 J/K/mol
347.45 K, Crystal 1	213.43 J/K/mol
348.18 K, Crystal 1	214.14 J/K/mol
348.74 K, Crystal 1	214.13 J/K/mol
349.27 K, Crystal 1	214.58 J/K/mol
349.93 K, Crystal 1	215.3 J/K/mol
350.48 K, Crystal 1	215.24 J/K/mol
351.09 K, Crystal 1	215.74 J/K/mol
351.67 K, Crystal 1	216.38 J/K/mol
352.41 K, Crystal 1	216.96 J/K/mol
352.91 K, Crystal 1	217.26 J/K/mol
353.42 K, Crystal 1	217.49 J/K/mol
354.55 K, Crystal 1	219.52 J/K/mol
354.73 K, Crystal 1	219 J/K/mol
355.16 K, Crystal 1	218.64 J/K/mol
363.8 K, Liquid	272.42 J/K/mol
364.48 K, Liquid	272.66 J/K/mol
364.59 K, Liquid	273 J/K/mol
365.34 K, Liquid	273.22 J/K/mol
365.92 K, Liquid	273.48 J/K/mol
366.16 K, Liquid	273.91 J/K/mol
366.88 K, Liquid	274.16 J/K/mol
367.36 K, Liquid	274.33 J/K/mol
367.52 K, Liquid	274.57 J/K/mol
367.73 K, Liquid	274.96 J/K/mol
368.42 K, Liquid	275.12 J/K/mol
368.79 K, Liquid	275.25 J/K/mol
368.96 K, Liquid	275.31 J/K/mol
